What was measured:
Assay type in all cases: cell-based, human
Golgi of HeLa cells [1] = assay: BFA-induced Golgi disassembly in cells prelabeled with 2; details: HeLa cells prelabeled with 2 (10 nM, 30 min), BFA 10 μM
Golgi of HeLa cells [2] = assay: FRET co-assembly of 2 with quencher 7, Golgi fluorescence over 24 minutes; details: 2 (10 nM) with 7 (5, 10, 20 nM) or UBQ2-COOH (10, 20 nM)
Golgi of HeLa cells [3] = assay: CLSM Golgi labeling at ultralow concentrations; details: 4 hours
Golgi of HeLa cells [4] = assay: FRAP assay at the Golgi; details: 500 nM, after 30-minute treatment
Golgi of HeLa cells [5] = assay: Time-lapse CLSM of Golgi fluorescence build-up; details: over 24 minutes

C[C@H]1CCC/C=C/[C@@H]2C[C@H](O)C[C@H]2[C@H](O)/C=C/C(=O)O1 [BFA, brefeldin A]
time at which the Golgi begins to lose its defined morphology (Golgi of HeLa cells [1]): 5.5 minutes | time at which the Golgi collapses into the ER (Golgi of HeLa cells [1]): 6.5 min

COc1cc(N=Nc2ccc([N+](=O)[O-])cc2)c(OC)cc1N=Nc1ccc(N(C)CCCC(=O)O)cc1 [UBQ2]
effect on Golgi fluorescence of 2 on co-treatment (Golgi of HeLa cells [2]): did not diminish Golgi fluorescence

CCCCCCCCCCCCC/C=C/[C@@H](O)[C@H](CO)NC(=O)CCCCC1=[N+]2C(=Cc3c(C)cc(C)n3[B-]2(F)F)C=C1 [BODIPY-C5-Ceramide]
Golgi fluorescence at 10 nM (Golgi of HeLa cells [3]; 10 nM): very dim fluorescence at the Golgi | Golgi localization at picomolar concentrations (Golgi of HeLa cells [3]; picomolar concentrations (500 pM)): no detectable Golgi localization | immobile fraction (IMf) at the Golgi (Golgi of HeLa cells [4]): 0.52 | Golgi fluorescence in time-lapse imaging at 10 nM (Golgi of HeLa cells [5]): no significant Golgi fluorescence
